Measurements from publication PMC11435058, “Synthesis of New Thiazole-Privileged Chalcones as Tubulin Polymerization Inhibitors with Potential Anticancer Activities” (Pharmaceuticals, 2024).
Read-outs that look alike come from different tables or passages of the source.

How the values were obtained:
SN12C = experiment: NCI-60 anticancer screen (SRB; single dose and five doses); conditions: Homo sapiens, 48 h, read-out: Growth Percentage
COLO 205 = experiment: as above; conditions: Homo sapiens, COLO 205, 48 h, read-out: Growth Percentage
NCI/ADR-RES = experiment: as above; conditions: Homo sapiens, 48 h, read-out: Growth Percentage
SF-268 = experiment: as above; conditions: Homo sapiens, SF-268, 48 h, read-out: Growth Percentage
NCI-H322M = experiment: as above; conditions: Homo sapiens, 48 h, read-out: Growth Percentage
NCI-H23 = experiment: as above; conditions: Homo sapiens, NCI-H23, 48 h, read-out: Growth Percentage
M14 = experiment: as above; conditions: Homo sapiens, M14, 48 h, read-out: Growth Percentage
HS 578T = experiment: as above; conditions: Homo sapiens, 48 h, read-out: Growth Percentage
MCF7 = experiment: as above; conditions: Homo sapiens, MCF7, 48 h, read-out: Growth Percentage
K-562 = experiment: as above; conditions: Homo sapiens, K562, 48 h, read-out: Growth Percentage
DU-145 = experiment: as above; conditions: Homo sapiens, DU-145, 48 h, read-out: Growth Percentage
RPMI-8226 = experiment: as above; conditions: Homo sapiens, RPMI-8226, 48 h, read-out: Growth Percentage
SK-MEL-5 = experiment: as above; conditions: Homo sapiens, SK-MEL-5, 48 h, read-out: Growth Percentage
SR = experiment: as above; conditions: Homo sapiens, 48 h, read-out: Growth Percentage
MOLT-4 = experiment: as above; conditions: Homo sapiens, MOLT-4, 48 h, read-out: Growth Percentage
SF-539 = experiment: as above; conditions: Homo sapiens, SF-539, 48 h, read-out: Growth Percentage
SNB-19 = experiment: cells; conditions: Homo sapiens, SNB-19, 48 h, read-out: Growth Percentage
EKVX = experiment: NCI-60 anticancer screen (SRB; single dose and five doses); conditions: Homo sapiens, 48 h, read-out: Growth Percentage
CCRF-CEM = experiment: NCI-60 anticancer screen (SRB; single dose 10 μM and five doses); conditions: Homo sapiens, 48 h, read-out: Growth Percentage
ACHN = experiment: NCI-60 anticancer screen (SRB; single dose and five doses); conditions: Homo sapiens, 48 h, read-out: Growth Percentage
RXF 393 = experiment: as above; conditions: Homo sapiens, RXF 393, 48 h, read-out: Growth Percentage
NCI-H522 = experiment: as above; conditions: Homo sapiens, NCI-H522, 48 h, read-out: Growth Percentage
A498 = experiment: as above; conditions: Homo sapiens, A498, 48 h, read-out: Growth Percentage, A498; dose of 10 μM
[1] = tested on: 60 human tumor cell lines panel; experiment: NCI-60 anticancer screen, whole panel (means and ranges over the cell lines); format: cell-based; conditions: Homo sapiens, 48 h
PC-3 = experiment: NCI-60 anticancer screen (SRB; single dose and five doses); conditions: Homo sapiens, PC-3, 48 h, read-out: Growth Percentage
MDA-MB-231/ATCC = experiment: as above; conditions: Homo sapiens, MDA-MB-231, 48 h, read-out: Growth Percentage
MALME-3M = experiment: as above; conditions: Homo sapiens, 48 h, read-out: Growth Percentage
BT-549 = experiment: as above; conditions: Homo sapiens, BT-549, 48 h, read-out: Growth Percentage
NCI-H226 = experiment: as above; conditions: Homo sapiens, NCI-H226, 48 h, read-out: Growth Percentage
[2] = mean over the tested cell lines, dose of 10 μM, read-out: Mean growth percentage
[3] = range over the cell lines, dose of 10 μM, read-out: growth percentages against most of the tested cells (lowest to highest)
[4] = read-out: growth percentages against most of the tested cells (lowest to highest)

SMILES	activity at 10 µM (SN12C)	activity at 10 µM (NCI/ADR-RES)	activity at 10 µM (SF-268)	activity at 10 µM (NCI-H23)	activity at 10 µM (M14)	activity at 10 µM (HS 578T)	activity at 10 µM (MCF7)	activity at 10 µM (K-562)	activity at 10 µM (DU-145)	activity at 10 µM (RPMI-8226)	activity at 10 µM (SK-MEL-5)	activity at 10 µM (MOLT-4)	activity at 10 µM (SF-539)	activity at 10 µM (SNB-19)	activity at 10 µM (EKVX)	activity at 10 µM (CCRF-CEM)	activity at 10 µM (ACHN)	activity at 10 µM (RXF 393)	activity at 10 µM (NCI-H522)	activity at 10 µM (A498)	also measured
Cc1[nH]c(=S)sc1C(=O)/C=C/c1ccccc1Cl [2d, (E)-3-(2-Chlorophenyl)-1-(4-Methyl-2-Thioxo-2,3-Dihydrothiazol-5-yl)Prop-2-En-1-One]	80%	88.8%	80.4%	91.8%	82.3%	92.8%	28.9%	47.4%	76%	28.6%	68.5%	84.2%	93.6%	85.2%	35.6%	46.8%	93.4%	93.8%	90.1%	116%	activity at 10 µM (COLO 205): 118%; activity at 10 µM (NCI-H322M): 106%; activity at 10 µM (SR): 14.1%; activity at 10 µM [1, 2]: 79.4%; activity at 10 µM [1, 3]: 14.1 to 116%; activity at 10 µM (PC-3): 71.8%; activity at 10 µM (MDA-MB-231/ATCC): 101%; activity at 10 µM (MALME-3M): 105%; activity at 10 µM (BT-549): 76.8%; activity at 10 µM (NCI-H226): 89.6%
Cc1[nH]c(=S)sc1C(=O)/C=C/c1ccccc1 [2a, (E)-1-(4-Methyl-2-Thioxo-2,3-Dihydrothiazol-5-yl)-3-Phenylprop-2-En-1-One]	66.1%	64.8%	69.8%	77.5%	77.1%	90.1%	19.8%	51%	27.9%	14.1%	68.8%	74.2%	41.7%	66.8%	73.1%	37.2%	71.8%	46.4%	71.7%	106%	activity at 10 µM (NCI-H322M): 66.5%; activity at 10 µM (SR): 32.4%; activity at 10 µM [1, 2]: 65%; activity at 10 µM [1, 3]: 14.1 to 129%; activity at 10 µM (PC-3): 77.6%; activity at 10 µM (MDA-MB-231/ATCC): 70%; activity at 10 µM (MALME-3M): 87.8%; activity at 10 µM (BT-549): 68.8%; activity at 10 µM (NCI-H226): 96.5%
COc1ccc(/C=C/C(=O)c2sc(=S)[nH]c2C)cc1 [2l, (E)-3-(4-Methoxyphenyl)-1-(4-Methyl-2-Thioxo-2,3-Dihydrothiazol-5-yl)Prop-2-En-1-One]	74.9%	76.4%	81%	81.8%	87.5%	96.5%	30.8%	56.6%	58.5%	19.6%	55.9%	81.5%	69.8%	75.6%	84.8%	59%	85.6%	77.5%	61.4%	120%	activity at 10 µM (NCI-H322M): 92.4%; activity at 10 µM (SR): 43.7%; activity at 10 µM [1, 4]: 15.1 to 120%; activity at 10 µM [1, 2]: 74.6%; activity at 10 µM (PC-3): 82.2%; activity at 10 µM (MDA-MB-231/ATCC): 89.3%; activity at 10 µM (MALME-3M): 90%; activity at 10 µM (BT-549): 75%; activity at 10 µM (NCI-H226): 93.6%
Cc1[nH]c(=S)sc1C(=O)/C=C/c1ccc(N(C)C)cc1 [2k, (E)-3-(4-(Dimethylamino)Phenyl)-1-(4-Methyl-2-Thioxo-2,3-Dihydrothiazol-5-yl)Prop-2-En-1-One]	75.7%	56.9%	99.3%	71.1%	83.2%	118%	60%	47%	92.8%	41.5%	51.3%	62.1%	88.7%	71.2%	67%	68.5%	75.7%	90.8%	58.9%	130%	activity at 10 µM (COLO 205): 115%; activity at 10 µM (NCI-H322M): 81.1%; activity at 10 µM (SR): 57.4%; activity at 10 µM [1, 4]: 35.4 to 130%; activity at 10 µM [1, 2]: 77.7%; activity at 10 µM (PC-3): 71.7%; activity at 10 µM (MDA-MB-231/ATCC): 90.3%; activity at 10 µM (MALME-3M): 79.4%; activity at 10 µM (BT-549): 82.2%; activity at 10 µM (NCI-H226): 88.3%
COc1ccc(/C=C/C(=O)c2sc(=S)[nH]c2C)c(OC)c1 [2n, (E)-3-(2,4-Dimethoxyphenyl)-1-(4-Methyl-2-Thioxo-2,3-Dihydrothiazol-5-yl)Prop-2-En-1-One]	81%	48%	89.7%	72.9%	75.8%	89.5%	46%	48.9%	86.9%	35.6%	37.8%	72.3%	87.3%	77.4%	56.2%	53.7%	77%	68.9%	73.5%	101%	activity at 10 µM (COLO 205): 123%; activity at 10 µM [1, 4]: 19.2 to 123%; activity at 10 µM [1, 2]: 75.1%; activity at 10 µM (PC-3): 75.7%; activity at 10 µM (MDA-MB-231/ATCC): 98.7%; activity at 10 µM (BT-549): 59.8%; activity at 10 µM (NCI-H226): 79.7%
